Earlier results as cited in article PMC7984154 (Chemmedchem, 2020).

What was measured:
[1] = steady state, oral dose of 5 mg
[2] = system: FAP; details: cancer indications, also in combination with other chemotherapies

SMILES	maximal plasma concentrations (single dose 600 mg) [µM]	highest tolerable dose (single rising dose studies) [mg]	clinical maximum plasma concentration [1] [nM]	efficacy in the clinical setting [2]
CC#CCn1c(N2CCC[C@@H](N)C2)nc2c1c(=O)n(Cc1nc(C)c3ccccc3n1)c(=O)n2C [linagliptin]	~4	600	12	–
CC(C)[C@H](N)C(=O)N1CCC[C@H]1B(O)O [PT100, talabostat]	–	–	–	minimal efficacy
